# Experimental data from US20240091366A1, “NOVEL ACID-SENSITIVE APTAMER TRIPTOLIDE CONJUGATE AND APPLICATIONS” (priority 2022, published 2024).
# Several values for one entry are separate records, joined by “and”; a condition that tells them apart may be missing. Equal entries are not always repeated.
# Experiments:
# Test in all cases: MTT assay, cell proliferation inhibition
# Assay type in all cases: cell-based
# [1] = test system: pancreatic cancer cell line PANC-1; conditions: 48 h, samples 1-3
# From the text: (§1) Material: aptamer triptolide conjugate (AS1411-TP). Triptolide (TP) was provided by Shanghai Yaji Biotechnology Co. Ltd; aptamer (AS1411) was obtained from Chengdu Pilot Drug Development Co. Ltd; trypsin, thiazolyl blue (MTT) (Biofroxx, Germany); dimethyl sulfoxide (DMSO) (MP Biomedicals, France); fetal bovine serum (FBS) (Newzerum, New Zealand); DMEM medium, RPMI1640 medium, Petri dishes, 96-well plates (Corning, USA); colon cancer cells HCT116, breast cancer cells MDA-MB-231, non-small-cell lung cancer cells A549, pancreatic cancer cells PANC-1, and hepatocellular carcinoma cells HepG2 were purchased from the Shanghai Cell Bank of the Chinese Academy of Sciences and preserved in the laboratory.
# (§2) Take the tumor cells HCT116, MDA-MB-231, A549, PANC-1 and HepG2 cell lines from the liquid nitrogen tank, place them in a 37° C. water bath, wait for the frozen cells to melt into cell suspension, centrifuge the cells at 1000 r/min for 3 min, discard the supernatant, add 1 ml of fresh complete medium containing 10% fetal bovine serum and 1% double antibody to mix the cells, then add 5 ml of medium, gently and repeatedly blowing the cells with a pipette gun to make them mix well. Then add 5 ml of medium, blow the cells gently and repeatedly with a pipette gun to mix them well, and finally transfer the cell suspension to a […] and label the cell name, cell number, date of resuscitation and the operator's name, and place it in a cell culture incubator for cultivation. (HCT116, PANC-1 and HepG2 cell lines were cultured in DMEM medium, while MDA-MB-231 cell line and A549 cell line were cultured in RPMI1640 medium).
# (§3) Take HCT116, MDA-MB-231, A549, PANC-1, HepG2 cells with good growth status, remove the medium, add 1 ml of sterile PBS to wash, add 1.5 ml of trypsin to digest the cells, about 2 min later the cells become round and fall off, add 1.5 ml of medium to terminate the digestion, transfer it to centrifugal tube, centrifuge at 1000 r/min for 3 min, discard the supernatant, add 1 ml of fresh medium to resuspend, then add fresh medium for 1:3 distribution to other culture dishes, and label the date of transmission and the number of generations. Place in the cell culture incubator for cultivation.
# (§4) Take HCT116, MDA-MB-231, A549, PANC-1, HepG2 cells with good growth status, by the same operation as the cell passaging experiment, after cell resuspension, cell counting with hemocyte counting plate, with 2500 cells/well, plant in 96-well plate, after 24 h of cell culture, remove the original medium, add medium containing different concentrations of drugs and continue to cultivate for 48 hours. After 24 h of cell culture, the original medium was removed and the medium containing different concentrations of drugs was added to continue the culture for 48 hours. […] The above steps were repeated three times.
# [2] = test system: lung adenocarcinoma cell line A549; conditions: 48 h
# From the text: as §1, §2, §3, §4
# [3] = test system: hepatocellular carcinoma cell line HepG2; conditions: 48 h
# From the text: as §1, §2, §3, §4
# [4] = test system: colon cancer cell line HCT116; conditions: 48 h
# From the text: as §1, §2, §3, §4
structure (smiles),measurement,setting,value
"CC(C)[C@]12O[C@H]1[C@@H]1O[C@]13[C@]1(O[C@H]1C[C@H]1C4=C(CC[C@@]13C)C(=O)OC4)[C@@H]2O [TP, Triptolide]",cell proliferation inhibition rate,"[1]; PANC-1, 3.1 nM, 0.0031 µM",30.2815 and 32.0448
same,cell proliferation inhibition rate,"[1]; PANC-1, 6.3 nM, 0.0063 µM",37.1753 and 34.7338
same,cell proliferation inhibition rate,"[1]; PANC-1, 12.5 nM, 0.0125 µM",47.8196 and 50.5663
same,cell proliferation inhibition rate,"[1]; PANC-1, 25.0 nM, 0.025 µM",58.7555 and 59.2302
same,cell proliferation inhibition rate,"[1]; PANC-1, 50.0 nM, 0.05 µM",65.1441 and 74.5337
same,cell proliferation inhibition rate,"[1]; PANC-1, 100.0 nM, 0.1 µM",81.0105 and 79.6202
same,cell proliferation inhibition rate,"[1]; PANC-1, 200.0 nM, 0.2 µM",98.8589 and 97.2313
same,cell proliferation inhibition rate,"[2]; A549, 6.3 nM, samples 1-3, 0.0063 µM",16.7429 and 15.2571
same,cell proliferation inhibition rate,"[2]; A549, 12.5 nM, samples 1-3, 0.0125 µM",29.4400 and 25.9563
same,cell proliferation inhibition rate,"[2]; A549, 25.0 nM, samples 1-3, 0.025 µM",43.2000 and 46.9811
same,cell proliferation inhibition rate,"[2]; A549, 50.0 nM, samples 1-3, 0.05 µM",66.0800 and 68.6718
same,cell proliferation inhibition rate,"[2]; A549, 100.0 nM, samples 1-3, 0.1 µM",84.2971 and 83.2186
same,cell proliferation inhibition rate,"[2]; A549, 200.0 nM, samples 1-3, 0.2 µM",97.0057 and 96.3263
same,inhibition at 0.0063 µM,"[2]; Homo sapiens, A549, 48 h, A549, 6.3 nM, samples 1-3, read-out: cell proliferation inhibition rate",13.7%
same,inhibition at 0.0125 µM,"[2]; Homo sapiens, A549, 48 h, A549, 12.5 nM, samples 1-3, read-out: cell proliferation inhibition rate",22.1%
same,inhibition at 0.025 µM,"[2]; Homo sapiens, A549, 48 h, A549, 25.0 nM, samples 1-3, read-out: cell proliferation inhibition rate",41.5%
same,inhibition at 0.05 µM,"[2]; Homo sapiens, A549, 48 h, A549, 50.0 nM, samples 1-3, read-out: cell proliferation inhibition rate",63%
same,inhibition at 0.1 µM,"[2]; Homo sapiens, A549, 48 h, A549, 100.0 nM, samples 1-3, read-out: cell proliferation inhibition rate",80.1%
same,inhibition at 0.2 µM,"[2]; Homo sapiens, A549, 48 h, A549, 200.0 nM, samples 1-3, read-out: cell proliferation inhibition rate",99.2%
same,IC50,"[2]; Homo sapiens, lung adenocarcinoma cells A549, MTT",30.23 ± 0.17 nM
same,cell proliferation inhibition rate,"[3]; HepG2, 3.1 nM, samples 1-3, 0.0031 µM",28.7555 and 29.2302
same,cell proliferation inhibition rate,"[3]; HepG2, 6.3 nM, samples 1-3, 0.0063 µM",39.8542 and 49.5151
same,cell proliferation inhibition rate,"[3]; HepG2, 12.5 nM, samples 1-3, 0.0125 µM",51.8210 and 55.5307
same,cell proliferation inhibition rate,"[3]; HepG2, 25.0 nM, samples 1-3, 0.025 µM",66.7752 and 69.1489
same,cell proliferation inhibition rate,"[3]; HepG2, 50.0 nM, samples 1-3, 0.05 µM",79.9729 and 77.1075
same,cell proliferation inhibition rate,"[3]; HepG2, 100.0 nM, samples 1-3, 0.1 µM",88.3181 and 85.8901
same,cell proliferation inhibition rate,"[3]; HepG2, 200.0 nM, samples 1-3, 0.2 µM",99.2815 and 99.0448
same,inhibition at 0.0031 µM,"[3]; Homo sapiens, HepG2, 48 h, HepG2, 3.1 nM, samples 1-3, read-out: cell proliferation inhibition rate",29%
same,inhibition at 0.0063 µM,"[3]; Homo sapiens, HepG2, 48 h, HepG2, 6.3 nM, samples 1-3, read-out: cell proliferation inhibition rate",39.7%
same,inhibition at 0.0125 µM,"[3]; Homo sapiens, HepG2, 48 h, HepG2, 12.5 nM, samples 1-3, read-out: cell proliferation inhibition rate",48.7%
same,inhibition at 0.025 µM,"[3]; Homo sapiens, HepG2, 48 h, HepG2, 25.0 nM, samples 1-3, read-out: cell proliferation inhibition rate",68%
same,inhibition at 0.05 µM,"[3]; Homo sapiens, HepG2, 48 h, HepG2, 50.0 nM, samples 1-3, read-out: cell proliferation inhibition rate",78.5%
same,inhibition at 0.1 µM,"[3]; Homo sapiens, HepG2, 48 h, HepG2, 100.0 nM, samples 1-3, read-out: cell proliferation inhibition rate",88.2%
same,inhibition at 0.2 µM,"[3]; Homo sapiens, HepG2, 48 h, HepG2, 200.0 nM, samples 1-3, read-out: cell proliferation inhibition rate",95.2%
same,IC50,"[3]; Homo sapiens, hepatocellular carcinoma cells HepG2, MTT",10.5 ± 0.33 nM
same,cell proliferation inhibition rate,"[4]; HCT116, 6.3 nM, samples 1-3, 0.0063 µM",20.0440 and 13.1188
same,cell proliferation inhibition rate,"[4]; HCT116, 12.5 nM, samples 1-3, 0.0125 µM",43.4099 and 47.0957
same,cell proliferation inhibition rate,"[4]; HCT116, 25.0 nM, samples 1-3, 0.025 µM",66.2973 and 50.7426
same,cell proliferation inhibition rate,"[4]; HCT116, 50.0 nM, samples 1-3, 0.05 µM",79.2127 and 76.2156
same,cell proliferation inhibition rate,"[4]; HCT116, 100.0 nM, samples 1-3, 0.1 µM",80.3075 and 88.8251
same,cell proliferation inhibition rate,"[4]; HCT116, 200.0 nM, samples 1-3, 0.2 µM",98.8058 and 98.5677
same,inhibition at 0.0063 µM,"[4]; Homo sapiens, HCT-116, 48 h, HCT116, 6.3 nM, samples 1-3, read-out: cell proliferation inhibition rate",24.7%
same,inhibition at 0.0125 µM,"[4]; Homo sapiens, HCT-116, 48 h, HCT116, 12.5 nM, samples 1-3, read-out: cell proliferation inhibition rate",42.1%
same,inhibition at 0.025 µM,"[4]; Homo sapiens, HCT-116, 48 h, HCT116, 25.0 nM, samples 1-3, read-out: cell proliferation inhibition rate",54.9%
same,inhibition at 0.05 µM,"[4]; Homo sapiens, HCT-116, 48 h, HCT116, 50.0 nM, samples 1-3, read-out: cell proliferation inhibition rate",75.6%
same,inhibition at 0.1 µM,"[4]; Homo sapiens, HCT-116, 48 h, HCT116, 100.0 nM, samples 1-3, read-out: cell proliferation inhibition rate",83%
same,inhibition at 0.2 µM,"[4]; Homo sapiens, HCT-116, 48 h, HCT116, 200.0 nM, samples 1-3, read-out: cell proliferation inhibition rate",97.2%
same,IC50,"[4]; Homo sapiens, HCT-116, colon cancer cells HCT116, MTT",18.88 ± 0.13 nM
